Assay results published in patent publication US20260206809A1, “NATURAL SWEETENER COMPOSITIONS CONTAINING ALKYL LACTATES AND USES THEREOF” (Firmenich SA, priority 2022, published 2026).

Assay: Solubility limit of the natural sweetener in pure solvents (estimated)
Format: physicochemical
Settings: for Solubility limit in ethyl lactate: pure ethyl lactate; for Solubility limit in glycerol: pure glycerol
Method: As used herein, “solubility at 25° C.” or “solubility at RT” is meant to represent the thermodynamic, equilibrium solubility of a natural sweetener at 25° C. or at RT. […] Subsequently, even once the temperature is brought back to a lower temperature, for example to 25° C., the solid compound may remain in solution for a certain amount of time while being supersaturated. However, this is an apparent solubility due to a non-equilibrium, metastable state with limited shelf-life stability, and therefore is distinguished from thermodynamic solubility at equilibrium. Thermodynamic solubility can, for example, be determined with the so-called shake flask method at a controlled temperature. Alternatively, it can be determined by slowly heating the compound and recording the solubilization temperature after complete dissolution.

| Solubility limit in ethyl lactate | Solubility limit in glycerol | Compound |
| --- | --- | --- |
| < 0.3% | about 2 % wt. | C=C1C[C@@]23CC[C@H]4[C@@](C)(CCC[C@@]4(C)C(=O)O[C@@H]4O[C@H](CO)[C@@H](O)[C@H](O)[C@H]4O)[C@@H]2CC[C@]1(O[C@@H]1O[C@H](CO)[C@@H](O)[C@H](O[C@@H]2O[C@H](CO)[C@@H](O)[C@H](O)[C@H]2O)[C@H]1O[C@@H]1O[C@H](CO)[C@@H](O)[C@H](O)[C@H]1O)C3 [Reb A (99.5%), Rebaudioside A] |
| < 0.7% | about 9 % wt. | C=C1C[C@@]23CC[C@H]4[C@@](C)(CCC[C@@]4(C)C(=O)O[C@@H]4O[C@H](CO)[C@@H](O)[C@H](O[C@@H]5O[C@H](CO)[C@@H](O)[C@H](O)[C@H]5O)[C@H]4O[C@@H]4O[C@H](CO)[C@@H](O)[C@H](O)[C@H]4O)[C@@H]2CC[C@]1(O[C@@H]1O[C@H](CO)[C@@H](O)[C@H](O[C@@H]2O[C@H](CO)[C@@H](O)[C@H](O)[C@H]2O)[C@H]1O[C@@H]1O[C@H](CO)[C@@H](O)[C@H](O)[C@H]1O)C3 [Reb M (95%), Rebaudioside M] |
| < 1% | about 16 % wt. | Rebaudioside B [Reb B (95%)] |
